Data on 26 compounds can be found in patent US9540323B2 (BRISTOL-MYERS SQUIBB COMPANY, priority 2012, dated 2017).

Test [1] deals with cloned human P2Y1 receptors (Homo sapiens (Human), UniProt P47900). Description: Binding Assay B - Scintillation Proximity Assay (SPA) for P2Y1 binding, [33P] 2MeS-ADP. Particulars: SPA, 0.3 nM [33P] 2MeS-ADP, Cheng-Prusoff; read-out: P2Y1 Ki (nM) using binding assay B. As to the method: Binding Assay B—Scintillation Proximity Assay (SPA) for P2Y1 Binding
A SPA membrane binding assay was used to identify inhibitors of [^33P] […] Reactions were allowed to proceed to completion at room temperature for 1 hour followed by centrifugation of the plate for 5 min. About 40 μL of the aqueous solution was aspirated. Plates were sealed and the [^33P]

Test [2] relates to human platelet rich plasma (PRP). Nature of the test: ADP induced platelet aggregation assay. The note with it: Homo sapiens, Platelet, 5 min, read-out: PA IC50 (μM) @ 10 μM ADP, human PRP, 10 μM ADP, AUC at 5 minute.

Chain of cloned human P2Y1 receptors (P47900 whole entry): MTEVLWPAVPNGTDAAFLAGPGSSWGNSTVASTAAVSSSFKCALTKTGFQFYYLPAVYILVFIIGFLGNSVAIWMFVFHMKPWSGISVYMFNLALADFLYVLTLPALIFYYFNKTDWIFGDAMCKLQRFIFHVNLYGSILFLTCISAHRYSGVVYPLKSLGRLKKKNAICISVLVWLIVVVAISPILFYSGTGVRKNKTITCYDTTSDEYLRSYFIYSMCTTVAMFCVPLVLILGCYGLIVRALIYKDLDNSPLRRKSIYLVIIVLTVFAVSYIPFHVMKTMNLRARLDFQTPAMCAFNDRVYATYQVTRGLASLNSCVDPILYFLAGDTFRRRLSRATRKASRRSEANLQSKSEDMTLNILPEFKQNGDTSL

For `CC1(C)CN(c2ccccc2NC(=O)Nc2ccc(OC(F)(F)F)cc2)c2c(O)ccc(C(F)(F)F)c21` [Example 12, 1-(2-(7-Hydroxy-3,3-dimethyl-4-(trifluoromethyl)indolin-1-yl)phenyl)-3-(4-(trifluoromethoxy)phenyl)urea], the inhibition constant Ki (in general, a measure of affinity in units of concentration, obtained from inhibition or displacement) in test [1] was 5 nM. In test [2], the IC50 (usually the concentration that gives 50% inhibition) amounted to 0.2 µM.
In the same order, the values of `CC1(C)CN(c2ccccc2NC(=O)Nc2ccc(OC(F)(F)F)cc2)c2c(O)ccc(-c3nc4cc(F)ccc4s3)c21` [Example 170, 1-(2-(4-(5-Fluorobenzo[d]thiazol-2-yl)-7-hydroxy-3,3-dimethylindolin-1-yl)phenyl)-3-(4-(trifluoromethoxy)phenyl)urea] are 14.1 nM and 0.25 µM.
In the same order, the values of `CC(C)(C)c1ccc(-c2c(F)cc(O)c3c2C(C)(C)CN3c2ccccc2NC(=O)Nc2ccc(OC(F)(F)F)cc2)cc1` [Example 241, 1-(2-(4-(4-(tert-Butyl)phenyl)-5-fluoro-7-hydroxy-3,3-dimethylindolin-1-yl)phenyl)-3-(4-(trifluoromethoxy)phenyl)urea] are 33.3 nM and 0.15 µM.
In the case of `CC1(C)CN(c2ccccc2NC(=O)Nc2nc3ccc(F)nc3s2)c2c(O)cc(F)c(-c3nc4ccc(F)cc4s3)c21` [Example 178, 1-(2-(5-Fluoro-4-(6-fluorobenzo[d]thiazol-2-yl)-7-hydroxy-3,3-dimethylindolin-1-yl)phenyl)-3-(5-fluorothiazolo[5,4-b]pyridin-2-yl)urea], the Ki in test [1] was determined as 17.9 nM. Further, the IC50 in test [2] amounted to 0.74 µM.
Take `CC1(C)CN(c2ccccc2NC(=O)Nc2nc3ccc(Cl)cc3s2)c2c(O)ccc(Br)c21` [Example 41, 1-(2-(4-Bromo-7-hydroxy-3,3-dimethylindolin-1-yl)phenyl)-3-(6-chlorobenzo[d]thiazol-2-yl)urea]: the Ki in test [1] came to 10.6 nM. For the same compound, the IC50 in test [2] was found to be 0.47 µM.
The matching figures for `CC1(C)CN(c2ccccc2NC(=O)Nc2ccc(OC(F)(F)F)cc2)c2c(O)ccc(-c3cccc(F)c3)c21` [Example 206, 1-(2-(4-(3-Fluorophenyl)-7-hydroxy-3,3-dimethylindolin-1-yl)phenyl)-3-(4-(trifluoromethoxy)phenyl)urea]: 8.5 nM and 0.24 µM.
With `CC1(C)CN(c2ccccc2NC(=O)Nc2nc3ccc(F)cc3s2)c2c(O)ccc(-c3ccc(F)cc3)c21` [Example 210, 1-(6-Fluorobenzo[d]thiazol-2-yl)-3-(2-(4-(4-fluorophenyl)-7-hydroxy-3,3-dimethylindolin-1-yl)phenyl)urea], the Ki in test [1] was 12.4 nM. In addition, in test [2], the half-inhibitory concentration (IC50) was 0.08 µM.
For `CC1(C)CN(c2ccccc2NC(=O)Nc2ccc(OC(F)(F)F)cc2)c2c(O)ccc(-c3cnc(Cl)cn3)c21` [Example 131, 1-(2-(4-(5-Chloropyrazin-2-yl)-7-hydroxy-3,3-dimethylindolin-1-yl)phenyl)-3-(4-(trifluoromethoxy)phenyl)urea], the Ki in test [1] came out at 9.1 nM. The 50% inhibitory concentration (IC50) in test [2] stood at 0.42 µM.
In the same order, the values of `CC(C)(C)CN1CCC(NC(=O)Nc2ccccc2N2CC(C)(C)c3c(-c4ccc(C(F)(F)F)cc4)c(F)cc(O)c32)CC1` [Example 246, 1-(2-(5-Fluoro-7-hydroxy-3,3-dimethyl-4-(4-(trifluoromethyl)phenyl)indolin-1-yl)phenyl)-3-(1-neopentylpiperidin-4-yl)urea] are 14.2 nM and 0.25 µM.
For `CCC1(CC)CN(c2ccccc2NC(=O)Nc2ccc(OC(F)(F)F)cc2)c2c(O)ccc(C)c21` [Example 71, 1-(2-(3,3-Diethyl-7-hydroxy-4-methylindolin-1-yl)phenyl)-3-(4-(trifluoromethoxy)phenyl)urea], the Ki in test [1] was found to be 6.8 nM. Also, in test [2], the IC50 came out at 0.5 µM.
In the case of `CC1(C)CN(c2ccccc2NC(=O)Nc2ccc(F)cc2F)c2c(O)ccc(C(F)(F)F)c21` [Example 14, 1-(2,4-Difluorophenyl)-3-(2-(7-hydroxy-3,3-dimethyl-4-(trifluoromethyl)indolin-1-yl)phenyl)urea], the Ki in test [1] is 5.2 nM. Besides, the concentration for half-maximal inhibition (IC50) in test [2] was 0.48 µM.
In the same order, the values of `CC1(C)CN(c2ccccc2NC(=O)Nc2ccc(OC(F)(F)F)cc2)c2c(O)ccc(-c3nc4cc(F)c(F)cc4o3)c21` [Example 99, 1-(2-(4-(5,6-Difluorobenzo[d]oxazol-2-yl)-7-hydroxy-3,3-dimethylindolin-1-yl)phenyl)-3-(4-(trifluoromethoxy)phenyl)urea] are 28.1 nM and 0.89 µM.
Take `CC(C)c1nc(-c2c(F)cc(O)c3c2C(C)(C)CN3c2ccccc2NC(=O)Nc2ccc(OC(F)(F)F)cc2)co1` [Example 258, 1-(2-(5-Fluoro-7-hydroxy-4-(2-isopropyloxazol-4-yl)-3,3-dimethylindolin-1-yl)phenyl)-3-(4-(trifluoromethoxy)phenyl)urea]: the Ki in test [1] came out at 7.5 nM. In test [2], the IC50 amounted to 0.52 µM.
Consider `CC1(C)CN(c2ccccc2NC(=O)Nc2nc3ccc(Cl)nc3s2)c2c(O)cc(F)c(-c3ccc(Cl)cc3)c21` [Example 226, 1-(2-(4-(4-Chlorophenyl)-5-fluoro-7-hydroxy-3,3-dimethylindolin-1-yl)phenyl)-3-(5-chlorothiazolo[5,4-b]pyridin-2-yl)urea], for which the Ki in test [1] is 26.6 nM. In test [2], the IC50 is 0.46 µM.
For the compound `CC1(C)CN(c2ccccc2NC(=O)Nc2ccc(OC(F)(F)F)cc2)c2c(O)cc(F)c(-c3ccc(F)c(Cl)c3)c21` [Example 237, 1-(2-(4-(3-Chloro-4-fluorophenyl)-5-fluoro-7-hydroxy-3,3-dimethylindolin-1-yl)phenyl)-3-(4-(trifluoromethoxy)phenyl)urea], in test [1], the inhibitory constant (Ki) worked out at 21.5 nM. In addition, the IC50 in test [2] was 0.48 µM.
In the same order, the values of `CC1(C)CN(c2ccccc2NC(=O)Nc2csc(Cl)n2)c2c(O)cc(F)c(-c3cc(C(F)(F)F)no3)c21` [Example 269, 1-(2-Chlorothiazol-4-yl)-3-(2-(5-fluoro-7-hydroxy-3,3-dimethyl 4-(3-(trifluoromethyl)isoxazol-5-yl)indolin-1-yl)phenyl)urea] are 1.2 nM and 0.39 µM.
Regarding `CNc1ncnc2oc(-c3ccc(O)c4c3C(C)(C)CN4c3ccccc3NC(=O)Nc3ccc(OC(F)(F)F)cc3)nc12` [Example 107, 1-(2-(7-Hydroxy-3,3-dimethyl-4-(7-(methylamino)oxazolo[5,4-d]pyrimidin-2-yl)indolin-1-yl)phenyl)-3-(4-(trifluoromethoxy)phenyl)urea], in test [1], the Ki is 24 nM. Besides, the IC50 in test [2] was 3.85 µM.
In the case of `CC1(C)CN(c2ccccc2NC(=O)Nc2ccc(OC(F)(F)F)cc2)c2c(O)ccc(-c3nc4cc(C(F)(F)F)ccc4s3)c21` [Example 87], the Ki in test [1] was determined as 42.9 nM. In addition, in test [2], the IC50 was 0.27 µM.
Consider `CCC1(CC)CN(c2ccccc2NC(=O)Nc2ccc(C3CCN(CC(C)C)CC3)cc2)c2c(O)ccc(F)c21` [Example 28, 1-(2-(3,3-Diethyl-4-fluoro-7-hydroxyindolin-1-yl)phenyl)-3-(4-(1-isobutylpiperidin-4-yl)phenyl)urea], for which the Ki in test [1] was 8.1 nM. Moreover, the IC50 in test [2] came to 0.54 µM.
`CC1(C)CN(c2ccccc2NC(=O)Nc2ccc(OC(F)(F)F)cc2)c2c(O)cc(F)c(-c3noc(C(F)(F)F)n3)c21` [Example 276, 1-(2-(5-Fluoro-7-hydroxy-3,3-dimethyl-4-(5-(trifluoromethyl)-1,2,4-oxadiazol-3-yl)indolin-1-yl)phenyl)-3-(4-(trifluoromethoxy)phenyl)urea]: the Ki in test [1] came out at 48.7 nM. Further, in test [2], the IC50 is 0.64 µM.
As to `CC1(C)CN(c2ccccc2NC(=O)Nc2csc(Cl)n2)c2c(O)ccc(Br)c21` [Example 6, 1-(2-(4-Bromo-7-hydroxy-3,3-dimethylindolin-1-yl)phenyl)-3-(2-chlorothiazol-4-yl)urea], in test [1], the Ki came to 24.4 nM. For the same compound, the IC50 in test [2] was determined as 0.31 µM.
Consider `CC1(C)CN(c2ccccc2NC(=O)Nc2csc(Cl)n2)c2c(O)cc(F)c(Br)c21` [Example 68, 1-(2-(4-Bromo-5-fluoro-7-hydroxy-3,3-dimethylindolin-1-yl)phenyl)-3-(2-chlorothiazol-4-yl)urea], for which the Ki in test [1] worked out at 7.5 nM. Besides, the IC50 in test [2] is 0.6 µM.
As for `CC1(C)CN(c2ccccc2NC(=O)Nc2nc3ccc(F)cc3s2)c2c(O)ccc(-c3nc4ccc(Cl)cc4o3)c21` [Example 134, 1-(2-(4-(6-Chlorobenzo[d]oxazol-2-yl)-7-hydroxy-3,3-dimethylindolin-1-yl)phenyl)-3-(6-fluorobenzo[d]thiazol-2-yl)urea], in test [1], the Ki came out at 73.8 nM. The IC50 in test [2] came to 0.19 µM.
Turning to `CC1(C)CN(c2ccccc2NC(=O)Nc2ccc(OC(F)(F)F)cc2)c2c(O)c(F)cc(CC(F)(F)F)c21` [Example 79, 1-(2-(6-Fluoro-7-hydroxy-3,3-dimethyl-4-(2,2,2-trifluoroethyl)indolin-1-yl)phenyl)-3-(4-(trifluoromethoxy)phenyl)urea], the Ki in test [1] is 9.7 nM. Besides, the IC50 in test [2] is 0.83 µM.
Consider `CC1(C)CN(c2ccccc2NC(=O)Nc2ccc(OC(F)(F)F)cc2)c2c(O)cc(F)c(-c3nc4ccc(Cl)cc4s3)c21` [Example 148, 1-(2-(4-(6-Chlorobenzo[d]thiazol-2-yl)-5-fluoro-7-hydroxy-3,3-dimethylindolin-1-yl)phenyl)-3-(4-(trifluoromethoxy)phenyl)urea], for which the Ki in test [1] is 83 nM. In addition, the IC50 in test [2] worked out at 0.68 µM.
Consider `CC1(C)CN(c2ccccc2NC(=O)Nc2nc3ccc(F)cc3s2)c2c(O)cc(F)c(-c3nc4ccc(Cl)cc4s3)c21` [Example 155, 1-(2-(4-(6-Chlorobenzo[d]thiazol-2-yl)-5-fluoro-7-hydroxy-3,3-dimethylindolin-1-yl)phenyl)-3-(6-fluorobenzo[d]thiazol-2-yl)urea], for which the Ki in test [1] was 38 nM. In test [2], the IC50 is 0.6 µM.
